Measured values published in PubChem BioAssay (NCI).
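Cells were grown in 96-well plates and exposed to each compound for 48 hours at five concentrations; endpoints were interpolated linearly between bracketing concentrations, or set to the highest concentration if not reached. TGI denotes the concentration required for complete inhibition of growth.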

Experiments:
Assay in all cases: DTP human tumour cell line panel, 48 h
SF-268 CNS = tested on: SF-268 CNS
KM20L2 colon = tested on: KM20L2 colon
DMS 114 small cell lung = tested on: DMS 114 small cell lung
XF 498 CNS = tested on: XF 498 CNS
SW-620 colon = tested on: SW-620 colon
MALME-3M melanoma = tested on: MALME-3M melanoma
SR leukemia = tested on: SR leukemia
OVCAR-5 ovarian = tested on: OVCAR-5 ovarian
HL-60(TB) leukemia = tested on: HL-60(TB) leukemia
SK-MEL-2 melanoma = tested on: SK-MEL-2 melanoma
HOP-62 NSCLC = tested on: HOP-62 NSCLC
EKVX NSCLC = tested on: EKVX NSCLC
SK-MEL-5 melanoma = tested on: SK-MEL-5 melanoma
HOP-92 NSCLC = tested on: HOP-92 NSCLC
TK-10 renal = tested on: TK-10 renal
SK-MEL-28 melanoma = tested on: SK-MEL-28 melanoma
UO-31 renal = tested on: UO-31 renal
SN12C renal = tested on: SN12C renal
SF-295 CNS = tested on: SF-295 CNS
HT29 colon = tested on: HT29 colon
NCI-H460 lung = tested on: NCI-H460 lung
OVCAR-4 ovarian = tested on: OVCAR-4 ovarian
NCI-H522 lung = tested on: NCI-H522 lung
RXF-631 renal = tested on: RXF-631 renal
M14 melanoma = tested on: M14 melanoma
OVCAR-8 ovarian = tested on: OVCAR-8 ovarian
SNB-19 CNS = tested on: SNB-19 CNS
LXFL 529 NSCLC = tested on: LXFL 529 NSCLC
KM12 colon = tested on: KM12 colon
CAKI-1 renal = tested on: CAKI-1 renal
UACC-62 melanoma = tested on: UACC-62 melanoma
CCRF-CEM leukemia = tested on: CCRF-CEM leukemia
HCT-116 colon = tested on: HCT-116 colon
UACC-257 melanoma = tested on: UACC-257 melanoma
M19-MEL melanoma = tested on: M19-MEL melanoma
ACHN renal = tested on: ACHN renal
IGROV1 ovarian = tested on: IGROV1 ovarian
HOP-18 NSCLC = tested on: HOP-18 NSCLC
SK-OV-3 ovarian = tested on: SK-OV-3 ovarian
DMS 273 small cell lung = tested on: DMS 273 small cell lung
COLO 205 colon = tested on: COLO 205 colon
HCC-2998 colon = tested on: HCC-2998 colon
SNB-75 CNS = tested on: SNB-75 CNS
HCT-15 colon = tested on: HCT-15 colon
OVCAR-3 ovarian = tested on: OVCAR-3 ovarian
NCI-H23 lung = tested on: NCI-H23 lung
A549 NSCLC = tested on: A549 NSCLC
RPMI-8226 leukemia = tested on: RPMI-8226 leukemia
U251 CNS = tested on: U251 CNS
MOLT-4 leukemia = tested on: MOLT-4 leukemia
K-562 leukemia = tested on: K-562 leukemia
A498 renal = tested on: A498 renal
SNB-78 CNS = tested on: SNB-78 CNS
SF-539 CNS = tested on: SF-539 CNS
NCI-H226 lung = tested on: NCI-H226 lung
786-0 renal = tested on: 786-0 renal
RXF 393 renal = tested on: RXF 393 renal
DLD-1 colon = tested on: DLD-1 colon
LOX IMVI melanoma = tested on: LOX IMVI melanoma

Structure (SMILES): Cc1ccc(CCC(=O)C(=O)O)s1
- TGI (SF-268 CNS): > 100 µM
- TGI (KM20L2 colon): > 100 µM
- TGI (DMS 114 small cell lung): > 100 µM
- TGI (XF 498 CNS): > 100 µM
- TGI (SW-620 colon): > 100 µM
- TGI (MALME-3M melanoma): > 100 µM
- TGI (SR leukemia): > 100 µM
- TGI (OVCAR-5 ovarian): > 100 µM
- TGI (HL-60(TB) leukemia): > 100 µM
- TGI (SK-MEL-2 melanoma): > 100 µM
- TGI (HOP-62 NSCLC): > 100 µM
- TGI (EKVX NSCLC): > 100 µM
- TGI (SK-MEL-5 melanoma): > 100 µM
- TGI (HOP-92 NSCLC): > 100 µM
- TGI (TK-10 renal): > 100 µM
- TGI (SK-MEL-28 melanoma): > 100 µM
- TGI (UO-31 renal): > 100 µM
- TGI (SN12C renal): > 100 µM
- TGI (SF-295 CNS): > 100 µM
- TGI (HT29 colon): > 100 µM
- TGI (NCI-H460 lung): > 100 µM
- TGI (OVCAR-4 ovarian): > 100 µM
- TGI (NCI-H522 lung): > 100 µM
- TGI (RXF-631 renal): > 100 µM
- TGI (M14 melanoma): > 100 µM
- TGI (OVCAR-8 ovarian): > 100 µM
- TGI (SNB-19 CNS): > 100 µM
- TGI (LXFL 529 NSCLC): > 100 µM
- TGI (KM12 colon): > 100 µM
- TGI (CAKI-1 renal): 90.3 µM
- TGI (UACC-62 melanoma): 48.6 µM
- TGI (CCRF-CEM leukemia): > 100 µM
- TGI (HCT-116 colon): > 100 µM
- TGI (UACC-257 melanoma): > 100 µM
- TGI (M19-MEL melanoma): > 100 µM
- TGI (ACHN renal): > 100 µM
- TGI (IGROV1 ovarian): > 100 µM
- TGI (HOP-18 NSCLC): > 100 µM
- TGI (SK-OV-3 ovarian): > 100 µM
- TGI (DMS 273 small cell lung): > 100 µM
- TGI (COLO 205 colon): > 100 µM
- TGI (HCC-2998 colon): > 100 µM
- TGI (SNB-75 CNS): > 100 µM
- TGI (HCT-15 colon): > 100 µM
- TGI (OVCAR-3 ovarian): > 100 µM
- TGI (NCI-H23 lung): > 100 µM
- TGI (A549 NSCLC): > 100 µM
- TGI (RPMI-8226 leukemia): > 100 µM
- TGI (U251 CNS): > 100 µM
- TGI (MOLT-4 leukemia): > 100 µM
- TGI (K-562 leukemia): > 100 µM
- TGI (A498 renal): > 100 µM
- TGI (SNB-78 CNS): > 100 µM
- TGI (SF-539 CNS): > 100 µM

Structure (SMILES): C/C=N\N1C(=O)c2ccccc2C1=O
- TGI (SF-268 CNS): > 100 µM
- TGI (KM20L2 colon): > 100 µM
- TGI (DMS 114 small cell lung): > 100 µM
- TGI (NCI-H226 lung): > 100 µM
- TGI (XF 498 CNS): > 100 µM
- TGI (SW-620 colon): > 100 µM
- TGI (MALME-3M melanoma): > 100 µM
- TGI (786-0 renal): > 100 µM
- TGI (SR leukemia): > 100 µM
- TGI (OVCAR-5 ovarian): > 100 µM
- TGI (HL-60(TB) leukemia): > 100 µM
- TGI (SK-MEL-2 melanoma): > 100 µM
- TGI (RXF 393 renal): > 100 µM
- TGI (HOP-62 NSCLC): > 100 µM
- TGI (EKVX NSCLC): > 100 µM
- TGI (SK-MEL-5 melanoma): > 100 µM
- TGI (DLD-1 colon): > 100 µM
- TGI (HOP-92 NSCLC): > 100 µM
- TGI (TK-10 renal): > 100 µM
- TGI (SK-MEL-28 melanoma): > 100 µM
- TGI (UO-31 renal): > 100 µM
- TGI (SN12C renal): > 100 µM
- TGI (SF-295 CNS): > 100 µM
- TGI (HT29 colon): > 100 µM
- TGI (NCI-H460 lung): > 100 µM
- TGI (OVCAR-4 ovarian): > 100 µM
- TGI (RXF-631 renal): > 100 µM
- TGI (M14 melanoma): > 100 µM
- TGI (OVCAR-8 ovarian): > 100 µM
- TGI (SNB-19 CNS): > 100 µM
- TGI (LXFL 529 NSCLC): > 100 µM
- TGI (KM12 colon): > 100 µM
- TGI (CAKI-1 renal): > 100 µM
- TGI (UACC-62 melanoma): > 100 µM
- TGI (CCRF-CEM leukemia): > 100 µM
- TGI (HCT-116 colon): > 100 µM
- TGI (UACC-257 melanoma): > 100 µM
- TGI (M19-MEL melanoma): > 100 µM
- TGI (ACHN renal): > 100 µM
- TGI (IGROV1 ovarian): > 100 µM
- TGI (HOP-18 NSCLC): > 100 µM
- TGI (DMS 273 small cell lung): > 100 µM
- TGI (HCC-2998 colon): > 100 µM
- TGI (SNB-75 CNS): > 100 µM
- TGI (HCT-15 colon): > 100 µM
- TGI (OVCAR-3 ovarian): > 100 µM
- TGI (NCI-H23 lung): > 100 µM
- TGI (A549 NSCLC): > 100 µM
- TGI (LOX IMVI melanoma): > 100 µM
- TGI (RPMI-8226 leukemia): > 100 µM
- TGI (MOLT-4 leukemia): > 100 µM
- TGI (K-562 leukemia): > 100 µM
- TGI (A498 renal): > 100 µM
- TGI (SNB-78 CNS): > 100 µM
- TGI (SF-539 CNS): > 100 µM
